US12071408B2, “Multi-targeted tyrosine kinase inhibitors effective in antitumor uses” (Shanghai AB PharmaTech Ltd., priority 2021, dated 2024)
Several values for one entry are separate records, joined by “and”; a condition that tells them apart may be missing. Equal values may be shown once. Read-outs that look alike come from different tables or passages of the source.

Assays:
[1] = system: hepatocellular carcinoma cell line (Hep3B 2.1-7); assay: Tumor cell proliferation inhibition (CTG, 72 h); format: cell-based; details: Homo sapiens; Hep3B 2.1-7 cells, class; read-out: Hep3B 2.1-7 range of activity (IC50)
FGFR2 = FGFR2 (Homo sapiens (Human), UniProt P21802); assay: Kinase inhibition, Mobility-Shift Assay; format: biochemical
FGFR2, sequence (P21802 22-821): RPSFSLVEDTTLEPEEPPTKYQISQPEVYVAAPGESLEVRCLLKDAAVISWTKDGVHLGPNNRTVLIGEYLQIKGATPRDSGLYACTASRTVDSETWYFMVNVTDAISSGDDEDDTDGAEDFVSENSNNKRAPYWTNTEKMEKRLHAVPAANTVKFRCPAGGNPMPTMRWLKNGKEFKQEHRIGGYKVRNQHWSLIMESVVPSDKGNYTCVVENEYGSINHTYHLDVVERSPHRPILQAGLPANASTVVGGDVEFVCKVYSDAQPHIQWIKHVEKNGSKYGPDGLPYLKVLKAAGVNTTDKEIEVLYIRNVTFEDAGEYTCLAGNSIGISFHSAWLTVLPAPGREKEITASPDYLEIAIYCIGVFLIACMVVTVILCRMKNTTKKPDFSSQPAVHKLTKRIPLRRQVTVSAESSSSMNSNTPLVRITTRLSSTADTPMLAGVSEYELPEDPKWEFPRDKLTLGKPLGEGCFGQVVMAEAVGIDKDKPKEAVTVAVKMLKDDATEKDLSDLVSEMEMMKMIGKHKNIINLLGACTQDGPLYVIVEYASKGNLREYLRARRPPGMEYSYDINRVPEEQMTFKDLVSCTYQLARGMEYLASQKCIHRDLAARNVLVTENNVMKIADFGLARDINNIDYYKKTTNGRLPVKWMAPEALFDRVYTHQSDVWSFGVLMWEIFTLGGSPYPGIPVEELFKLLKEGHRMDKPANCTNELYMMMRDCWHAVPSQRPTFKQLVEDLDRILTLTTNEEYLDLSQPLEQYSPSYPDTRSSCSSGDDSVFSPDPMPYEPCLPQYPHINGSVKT

FGFR4 = FGFR4 (Homo sapiens (Human), UniProt P22455); assay: Kinase inhibition, Mobility-Shift Assay; format: biochemical
FGFR4, sequence (P22455 22-802): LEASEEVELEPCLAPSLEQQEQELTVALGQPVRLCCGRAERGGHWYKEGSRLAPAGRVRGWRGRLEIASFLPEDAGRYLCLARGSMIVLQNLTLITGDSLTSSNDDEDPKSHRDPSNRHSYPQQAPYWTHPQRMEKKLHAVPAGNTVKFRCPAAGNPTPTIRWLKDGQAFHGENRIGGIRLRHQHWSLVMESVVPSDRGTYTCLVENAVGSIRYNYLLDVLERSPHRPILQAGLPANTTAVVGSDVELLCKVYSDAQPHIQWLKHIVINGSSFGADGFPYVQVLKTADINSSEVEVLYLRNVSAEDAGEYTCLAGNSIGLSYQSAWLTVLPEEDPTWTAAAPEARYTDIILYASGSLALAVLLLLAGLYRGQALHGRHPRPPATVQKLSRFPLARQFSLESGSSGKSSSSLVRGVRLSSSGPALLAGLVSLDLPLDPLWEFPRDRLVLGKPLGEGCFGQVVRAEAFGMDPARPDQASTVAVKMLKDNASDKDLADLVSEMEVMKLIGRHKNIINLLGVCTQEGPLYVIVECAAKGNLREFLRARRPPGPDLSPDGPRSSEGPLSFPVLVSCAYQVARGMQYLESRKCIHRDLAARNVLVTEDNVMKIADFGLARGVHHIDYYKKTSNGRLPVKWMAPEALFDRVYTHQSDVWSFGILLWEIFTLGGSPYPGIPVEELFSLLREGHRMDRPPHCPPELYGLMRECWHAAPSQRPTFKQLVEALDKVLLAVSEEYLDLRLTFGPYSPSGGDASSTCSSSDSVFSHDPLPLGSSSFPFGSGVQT

FGFR1 = FGFR1 (Homo sapiens (Human), UniProt P11362); assay: Kinase inhibition, Mobility-Shift Assay; format: biochemical; details: read-out: FGFR-1 IC50
hERG potassium channels = hERG potassium channels (Homo sapiens (Human), UniProt Q12809); assay: hERG in vitro inhibition, whole-cell patch clamp; format: cell-based; details: in vitro hERG current inhibition
VEGFR-3 (FLT4) = VEGFR-3 (FLT4) (Homo sapiens (Human), UniProt P35916); assay: Kinase inhibition, Mobility-Shift Assay; format: biochemical
C-MET = C-MET (Homo sapiens (Human), UniProt P08581); assay: Kinase inhibition, Mobility-Shift Assay; format: biochemical
C-MET, sequence (P08581 25-1390): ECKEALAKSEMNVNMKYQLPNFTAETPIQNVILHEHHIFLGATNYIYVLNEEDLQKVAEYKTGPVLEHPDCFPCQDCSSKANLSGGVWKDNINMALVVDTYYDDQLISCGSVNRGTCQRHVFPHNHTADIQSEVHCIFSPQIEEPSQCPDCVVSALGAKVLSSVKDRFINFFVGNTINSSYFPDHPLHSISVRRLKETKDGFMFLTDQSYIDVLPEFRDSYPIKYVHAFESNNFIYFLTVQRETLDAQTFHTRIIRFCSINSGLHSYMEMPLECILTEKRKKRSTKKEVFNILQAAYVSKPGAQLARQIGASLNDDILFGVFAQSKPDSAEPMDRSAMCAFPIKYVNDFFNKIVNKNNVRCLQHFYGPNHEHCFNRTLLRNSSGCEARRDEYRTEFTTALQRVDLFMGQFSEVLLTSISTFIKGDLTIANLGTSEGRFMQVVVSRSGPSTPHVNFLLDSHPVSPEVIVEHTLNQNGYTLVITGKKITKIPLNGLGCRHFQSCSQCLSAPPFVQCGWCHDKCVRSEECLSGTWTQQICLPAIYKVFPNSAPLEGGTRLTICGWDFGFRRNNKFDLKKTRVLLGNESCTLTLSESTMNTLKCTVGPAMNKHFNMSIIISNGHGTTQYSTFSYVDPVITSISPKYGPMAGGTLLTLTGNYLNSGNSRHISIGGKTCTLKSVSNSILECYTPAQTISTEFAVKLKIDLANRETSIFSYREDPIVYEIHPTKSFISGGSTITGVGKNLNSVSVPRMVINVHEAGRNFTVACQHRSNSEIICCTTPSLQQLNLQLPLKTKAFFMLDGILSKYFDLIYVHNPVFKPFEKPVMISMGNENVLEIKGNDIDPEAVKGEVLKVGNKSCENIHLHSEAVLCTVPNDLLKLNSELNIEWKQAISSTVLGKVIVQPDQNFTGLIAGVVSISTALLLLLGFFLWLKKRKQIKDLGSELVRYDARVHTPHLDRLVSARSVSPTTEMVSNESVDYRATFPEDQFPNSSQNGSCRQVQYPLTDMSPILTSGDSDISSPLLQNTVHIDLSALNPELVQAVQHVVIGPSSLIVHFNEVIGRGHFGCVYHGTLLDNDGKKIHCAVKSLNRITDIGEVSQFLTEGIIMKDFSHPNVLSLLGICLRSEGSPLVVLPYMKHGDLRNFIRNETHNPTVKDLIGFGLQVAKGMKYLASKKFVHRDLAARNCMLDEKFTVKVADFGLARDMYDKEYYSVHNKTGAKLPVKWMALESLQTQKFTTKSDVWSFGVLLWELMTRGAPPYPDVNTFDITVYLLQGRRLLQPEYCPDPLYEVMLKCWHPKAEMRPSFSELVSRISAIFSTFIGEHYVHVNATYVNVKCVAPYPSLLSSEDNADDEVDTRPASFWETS

[2] = system: leukemia cell line (K562); assay: Tumor cell proliferation inhibition (CTG, 72 h); format: cell-based; details: Homo sapiens; K562 cells, class; read-out: K562 activity effect range (IC50)
RET = RET (Homo sapiens (Human), UniProt P07949); assay: Kinase inhibition, Mobility-Shift Assay; format: biochemical
[3] = system: bladder cancer cell line (RT112/84); assay: Tumor cell proliferation inhibition (CTG, 72 h); format: cell-based; details: Homo sapiens
FGFR3 = FGFR3 (Homo sapiens (Human), UniProt P22607); assay: Kinase inhibition, Mobility-Shift Assay; format: biochemical; details: read-out: FGFR-3 IC50
FGFR3, sequence (P22607 23-806): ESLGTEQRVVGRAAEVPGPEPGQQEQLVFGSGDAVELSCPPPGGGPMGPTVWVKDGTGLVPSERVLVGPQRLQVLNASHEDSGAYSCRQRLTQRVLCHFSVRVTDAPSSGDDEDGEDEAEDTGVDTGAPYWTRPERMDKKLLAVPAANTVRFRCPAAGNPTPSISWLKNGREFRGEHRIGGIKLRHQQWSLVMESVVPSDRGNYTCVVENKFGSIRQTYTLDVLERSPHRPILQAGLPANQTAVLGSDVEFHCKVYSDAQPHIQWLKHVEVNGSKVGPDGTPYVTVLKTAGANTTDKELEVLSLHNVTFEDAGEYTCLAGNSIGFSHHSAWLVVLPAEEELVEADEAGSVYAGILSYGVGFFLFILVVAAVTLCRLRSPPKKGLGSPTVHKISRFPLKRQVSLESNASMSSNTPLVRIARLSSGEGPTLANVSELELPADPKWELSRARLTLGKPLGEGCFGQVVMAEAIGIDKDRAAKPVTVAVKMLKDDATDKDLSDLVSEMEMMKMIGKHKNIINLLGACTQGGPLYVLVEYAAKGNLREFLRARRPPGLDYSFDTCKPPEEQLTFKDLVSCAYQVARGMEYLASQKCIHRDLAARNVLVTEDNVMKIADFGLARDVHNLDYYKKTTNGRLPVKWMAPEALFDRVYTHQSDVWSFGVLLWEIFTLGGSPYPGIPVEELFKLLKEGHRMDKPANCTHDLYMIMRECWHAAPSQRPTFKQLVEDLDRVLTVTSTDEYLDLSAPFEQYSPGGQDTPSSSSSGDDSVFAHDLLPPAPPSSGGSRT
Protocol: In this experiment, the inhibitory effects of small molecule inhibitors on 17 kinases were examined by using fluorescent microfluidic mobility shift assay (Mobility-Shift Assay).
2. Compounds were configured in 100% DMSO in a concentration gradient and diluted with buffer to 10% DMSO, and added to 384-well plates. Compounds starting at […] are prepared in 100% DMSO to 25 μM and diluted in a gradient of 10 concentrations, then diluted 10-fold in buffer to make an intermediate dilution of the compound containing 10% DMSO and transferred 5 μl to a 384-well plate. 3. The kinase was diluted to optimal concentration with the following buffers: 50 mM HEPES, pH 7.5, 0.00015% Brij-35, 2 mM DTT (final concentration of enzyme reaction: VEGFR-1 (FLT1): 2 nM; VEGFR-2 (KDR): 1.2 nM; VEGFR-3 (FLT4): 1.5 nM; FGFR1: 2 nM); FGFR2: 9 nM; FGFR3: 8 nM; FGFR4: 10 nM; PDGFRα: 3.5 nM; c-MET: 10 nM; RET: 7 nM; EGFR: 6 nM). Transfer 10 μl into a 384-well plate and incubate with the compounds for 10 min. 4. […] Read the conversion rate with Caliper Reader and calculate the conversion rate as suppression, formula Percent inhIcition=(max−conversion)/(max−min)*100. […]

VEGFR-1 (FLT1) = VEGFR-1 (FLT1) (Homo sapiens (Human), UniProt P17948); assay: Kinase inhibition, Mobility-Shift Assay; format: biochemical
[4] = system: cervical cancer cell line (Hela); assay: Tumor cell proliferation inhibition (CTG, 72 h); format: cell-based; details: Homo sapiens; Hela cells, class; read-out: Hela activity effect range (IC50)
rats [5] = assay: 28-day GLP toxicity test; format: in vivo; details: 50, 100, 150 mg/kg once a day by gavage, 28 days
Protocol: The 28-day GLP toxicity test also used healthy rats at three doses (50 mg/kg, 100 mg/kg, 150 mg/kg), and the three groups of rats were administered once a day by gavage, and the toxicity of the test substance was evaluated by observing the toxicity response of the experimental animals for 28 consecutive days. […] Therefore, the preferred compound “III-01” designed and synthesized by the present invention not only has better inhibitory activity, but also has better safety and drug-forming properties, which is worthy of further clinical trials and application.

[6] = system: thyroid cancer cell line (TT); assay: Tumor cell proliferation inhibition (CTG, 72 h); format: cell-based
ABL = ABL (Homo sapiens (Human), UniProt P00519); assay: Kinase inhibition, Mobility-Shift Assay; format: biochemical
VEGFR-2 (KDR) = VEGFR-2 (KDR) (Homo sapiens (Human), UniProt P35968); assay: Kinase inhibition, Mobility-Shift Assay; format: biochemical
VEGFR-2 (KDR), sequence (P35968 20-1356): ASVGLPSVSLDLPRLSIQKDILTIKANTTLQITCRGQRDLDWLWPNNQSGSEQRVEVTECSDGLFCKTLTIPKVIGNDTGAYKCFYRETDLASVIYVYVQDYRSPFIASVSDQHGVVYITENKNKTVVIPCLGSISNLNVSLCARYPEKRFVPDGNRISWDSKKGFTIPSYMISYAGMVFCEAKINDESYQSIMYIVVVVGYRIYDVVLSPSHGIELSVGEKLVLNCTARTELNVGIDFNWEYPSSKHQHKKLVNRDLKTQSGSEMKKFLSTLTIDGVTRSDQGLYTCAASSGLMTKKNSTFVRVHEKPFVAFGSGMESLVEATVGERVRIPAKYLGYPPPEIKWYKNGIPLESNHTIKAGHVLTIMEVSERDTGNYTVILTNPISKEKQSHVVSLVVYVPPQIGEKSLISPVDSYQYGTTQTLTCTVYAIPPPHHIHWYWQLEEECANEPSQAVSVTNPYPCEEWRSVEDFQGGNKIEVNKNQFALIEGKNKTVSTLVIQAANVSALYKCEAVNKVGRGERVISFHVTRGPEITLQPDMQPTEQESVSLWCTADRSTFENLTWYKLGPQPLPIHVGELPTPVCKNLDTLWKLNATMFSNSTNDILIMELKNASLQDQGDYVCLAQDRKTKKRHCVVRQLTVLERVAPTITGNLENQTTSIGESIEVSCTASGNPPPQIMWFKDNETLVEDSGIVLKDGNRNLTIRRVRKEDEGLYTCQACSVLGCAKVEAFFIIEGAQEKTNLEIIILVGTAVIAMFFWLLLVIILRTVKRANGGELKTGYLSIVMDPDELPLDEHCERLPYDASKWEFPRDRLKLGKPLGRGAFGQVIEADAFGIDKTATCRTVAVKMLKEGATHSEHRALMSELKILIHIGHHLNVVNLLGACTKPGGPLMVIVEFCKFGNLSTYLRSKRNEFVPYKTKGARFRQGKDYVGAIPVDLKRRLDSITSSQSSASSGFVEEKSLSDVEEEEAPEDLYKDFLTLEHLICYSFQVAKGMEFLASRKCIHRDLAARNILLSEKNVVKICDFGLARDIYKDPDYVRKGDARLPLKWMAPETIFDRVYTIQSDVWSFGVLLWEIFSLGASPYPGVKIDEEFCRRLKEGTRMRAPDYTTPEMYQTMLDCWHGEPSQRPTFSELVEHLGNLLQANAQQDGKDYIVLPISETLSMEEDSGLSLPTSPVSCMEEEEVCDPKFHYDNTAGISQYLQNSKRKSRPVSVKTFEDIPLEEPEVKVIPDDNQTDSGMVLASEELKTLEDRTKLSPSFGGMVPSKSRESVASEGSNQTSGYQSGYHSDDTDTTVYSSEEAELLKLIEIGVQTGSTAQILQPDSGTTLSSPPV

EGFR = EGFR (Homo sapiens (Human), UniProt P00533); assay: Kinase inhibition, Mobility-Shift Assay; format: biochemical
PDGFRα = PDGFRα (Homo sapiens (Human), UniProt P16234); assay: Kinase inhibition, Mobility-Shift Assay; format: biochemical
[7] = MTD toxicity test in rats; details: rat, in vivo
rats [8] = assay: MTD toxicity test in rats; details: rat, in vivo, 300 mg/kg
[9] = class, read-out: FGFR2 range of activity effects (IC50)
[10] = class, read-out: FGFR4 range of activity effects (IC50)
[11] = class, read-out: C-MET range of activity (IC50)
[12] = RT112/84 bladder cancer cells, 72 h, read-out: RT112/84 (uM), inhibitory activity IC50
[13] = RT112/84 cells, class, read-out: RT112/84 range of activity (IC50)
[14] = Homo sapiens, TT cells, class, read-out: TT range of activity (IC50)
[15] = TT thyroid cancer cells, 72 h, read-out: TT (uM), inhibitory activity IC50
[16] = class, read-out: KDR activity effect range (IC50)
[17] = class, read-out: EGFR range of activity (IC50)

Compound | IC50 [1] [nM] | IC50 (FGFR2; [9]) [nM] | IC50 (FGFR2; read-out: FGFR-2 IC50) [nM] | IC50 (FGFR4; [10]) [nM] | IC50 (FGFR4; read-out: FGFR-4 IC50) [nM] | IC50 (FGFR1) [nM] | IC50 (hERG potassium channels) [nM] | IC50 (VEGFR-3 (FLT4)) [nM] | IC50 (C-MET; [11]) [nM] | IC50 (C-MET; read-out: C-MET IC50) [nM] | IC50 [2] [nM] | IC50 [3, 12] [µM] | IC50 [3, 13] [µM] | IC50 (FGFR3) [nM] | IC50 [4] [nM] | IC50 [6, 14] [µM] | IC50 [6, 15] [µM] | IC50 (ABL) [nM] | IC50 (EGFR; [17]) [nM] | IC50 (EGFR; read-out: EGFR IC50) | further results
COc1cc2nccc(Oc3c(F)cc(NC(=O)NC4CC4)c(Cl)c3F)c2cc1C(N)=O [III-01] | < 2500 | < 30 | 11 | < 30 | 17 | 14 | > 30000 | 1.1 | 60 to 100 | 96 | 5000 to 10000 | 0.13 | < 0.2 | 22 | 5000 to 10000 | < 5 | 1.5 | 68 | < 60 | 58 nM and 53 nM | Ames assay (Ames assay): negative; IC50 (RET): 2.5 nM; IC50 (VEGFR-1 (FLT1)): 3.7 nM; Autopsy results, 28-day GLP toxicity test (rats [5]): did not reveal any abnormal changes; IC50 (VEGFR-2 (KDR); [16]): < 2 nM; IC50 (VEGFR-2 (KDR); read-out: VEGFR-2 (KDR) IC50): 0.6 nM; IC50 (PDGFRα): 7.9 nM; MTD ([7]; 300 mg/kg, rats, read-out: MTD toxicity dose): 300 mg/kg; MTD ([7]; rats, read-out: MTD toxicity dose): > 300 mg/kg; Observation at MTD dose (rats [8]): without any abnormalities such as death
COc1cc2nccc(Oc3c(F)c(N(C)C)c(NC(=O)NC4CC4)c(N(C)C)c3F)c2cc1C(N)=O [III-52] | > 5000 | > 100 | – | > 100 | – | – | – | – | > 100 | – | > 10000 | – | > 1 | – | > 10000 | > 10 | – | – | > 100 | – | IC50 (VEGFR-2 (KDR); [16]): > 10 nM
COc1cc2nccc(Oc3ccc(NC(=O)NC4CC4)c(Cl)c3)c2cc1C(N)=O [Lenvatinib, reference compound] | – | 30 to 100 | 27 | 30 to 100 | 65 | 56 | – | 3.2 | > 100 | > 1000 | – | 0.29 | 0.2 to 1 | 59 | – | > 10 | > 10 | – | – | – | IC50 (PDGFRα): 27 nM; MTD [7]: 40 mg/kg
COc1cc2nccc(Oc3ccc(NC(=O)NC4CC4)c(Cl)c3F)c2cc1C(N)=O [Ref-2, reference compound] | – | – | – | – | 39 | – | 15400 | – | – | – | – | 0.42 | – | – | – | – | 6.4 | – | – | > 1000 nM | IC50 (VEGFR-2 (KDR); read-out: VEGFR-2 (KDR) IC50): 8.6 nM
CNC(=O)c1cc(Oc2ccc(NC(=O)Nc3ccc(Cl)c(C(F)(F)F)c3)c(F)c2)ccn1 [Regorafenib, reference compound] | – | – | – | > 100 | > 500 | – | – | – | > 100 | > 1000 | – | – | 0.2 to 1 | 62 | – | > 10 | – | > 500 | > 100 | > 1000 nM | –
